# Assay results published in PubChem BioAssay (NCI).
#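 Assay format: 96-well plates, 48-hour exposure. Here, GI50 denotes the concentration required for 50% inhibition of growth. Definition used: TGI = concentration required for complete inhibition of growth.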
# Tests used:
# Assay in all cases: DTP human tumour cell line panel, 48 h
# U251 CNS = tested on: U251 CNS
# DU-145 prostate = tested on: DU-145 prostate
# K-562 leukemia = tested on: K-562 leukemia
# NCI-H460 lung = tested on: NCI-H460 lung
# CCRF-CEM leukemia = tested on: CCRF-CEM leukemia
# MDA-MB-231 breast = tested on: MDA-MB-231 breast
# OVCAR-5 ovarian = tested on: OVCAR-5 ovarian
# EKVX NSCLC = tested on: EKVX NSCLC
# UACC-62 melanoma = tested on: UACC-62 melanoma
# RXF 393 renal = tested on: RXF 393 renal
# 786-0 renal = tested on: 786-0 renal
# UACC-257 melanoma = tested on: UACC-257 melanoma
# RPMI-8226 leukemia = tested on: RPMI-8226 leukemia
# SK-OV-3 ovarian = tested on: SK-OV-3 ovarian
# LOX IMVI melanoma = tested on: LOX IMVI melanoma
# HOP-62 NSCLC = tested on: HOP-62 NSCLC
# OVCAR-4 ovarian = tested on: OVCAR-4 ovarian
# NCI-H226 lung = tested on: NCI-H226 lung
# SF-295 CNS = tested on: SF-295 CNS
# OVCAR-3 ovarian = tested on: OVCAR-3 ovarian
# HL-60(TB) leukemia = tested on: HL-60(TB) leukemia
# SNB-19 CNS = tested on: SNB-19 CNS
# PC-3 prostate = tested on: PC-3 prostate
# BT-549 breast = tested on: BT-549 breast
# NCI-H522 lung = tested on: NCI-H522 lung
# A549 NSCLC = tested on: A549 NSCLC
# M14 melanoma = tested on: M14 melanoma
# T-47D breast = tested on: T-47D breast
# CAKI-1 renal = tested on: CAKI-1 renal
# OVCAR-8 ovarian = tested on: OVCAR-8 ovarian
# SK-MEL-5 melanoma = tested on: SK-MEL-5 melanoma
# SW-620 colon = tested on: SW-620 colon
# MOLT-4 leukemia = tested on: MOLT-4 leukemia
# HCT-15 colon = tested on: HCT-15 colon
# UO-31 renal = tested on: UO-31 renal
# IGROV1 ovarian = tested on: IGROV1 ovarian
# SNB-75 CNS = tested on: SNB-75 CNS
# COLO 205 colon = tested on: COLO 205 colon
# MALME-3M melanoma = tested on: MALME-3M melanoma
# TK-10 renal = tested on: TK-10 renal
# KM12 colon = tested on: KM12 colon
# SF-268 CNS = tested on: SF-268 CNS
# SF-539 CNS = tested on: SF-539 CNS
# SK-MEL-2 melanoma = tested on: SK-MEL-2 melanoma
# SR leukemia = tested on: SR leukemia
# MCF7 breast = tested on: MCF7 breast
# HCC-2998 colon = tested on: HCC-2998 colon
# MDA-MB-435 = tested on: MDA-MB-435
# SN12C renal = tested on: SN12C renal
# HOP-92 NSCLC = tested on: HOP-92 NSCLC
# HCT-116 colon = tested on: HCT-116 colon
# HT29 colon = tested on: HT29 colon
# ACHN renal = tested on: ACHN renal
# NCI/ADR-RES ovarian = tested on: NCI/ADR-RES ovarian
# NCI-H23 lung = tested on: NCI-H23 lung
# HS 578T breast = tested on: HS 578T breast
# A498 renal = tested on: A498 renal
# SK-MEL-28 melanoma = tested on: SK-MEL-28 melanoma
smiles,measurement,setting,value
CCn1c(-c2nonc2N)nc2c(C#CC(C)(C)O)nc(CN3CCCC3)cc21,GI50,U251 CNS,> 25 µM
same,TGI,U251 CNS,> 25 µM
same,GI50,DU-145 prostate,> 25 µM
same,TGI,DU-145 prostate,> 25 µM
same,GI50,K-562 leukemia,> 25 µM
same,TGI,K-562 leukemia,> 25 µM
same,GI50,NCI-H460 lung,> 25 µM
same,TGI,NCI-H460 lung,> 25 µM
same,GI50,CCRF-CEM leukemia,20.5 µM
same,TGI,CCRF-CEM leukemia,> 25 µM
same,GI50,MDA-MB-231 breast,> 25 µM
same,TGI,MDA-MB-231 breast,> 25 µM
same,GI50,OVCAR-5 ovarian,> 25 µM
same,TGI,OVCAR-5 ovarian,> 25 µM
same,GI50,EKVX NSCLC,> 25 µM
same,TGI,EKVX NSCLC,> 25 µM
same,GI50,UACC-62 melanoma,> 25 µM
same,TGI,UACC-62 melanoma,> 25 µM
same,GI50,RXF 393 renal,6.31 µM
same,TGI,RXF 393 renal,> 25 µM
same,GI50,786-0 renal,18.7 µM
same,TGI,786-0 renal,> 25 µM
same,GI50,UACC-257 melanoma,> 25 µM
same,TGI,UACC-257 melanoma,> 25 µM
same,GI50,RPMI-8226 leukemia,> 25 µM
same,TGI,RPMI-8226 leukemia,> 25 µM
same,GI50,SK-OV-3 ovarian,> 25 µM
same,TGI,SK-OV-3 ovarian,> 25 µM
same,GI50,LOX IMVI melanoma,> 25 µM
same,TGI,LOX IMVI melanoma,> 25 µM
same,GI50,HOP-62 NSCLC,> 25 µM
same,TGI,HOP-62 NSCLC,> 25 µM
same,GI50,OVCAR-4 ovarian,> 25 µM
same,TGI,OVCAR-4 ovarian,> 25 µM
same,GI50,NCI-H226 lung,> 25 µM
same,TGI,NCI-H226 lung,> 25 µM
same,GI50,SF-295 CNS,10.9 µM
same,TGI,SF-295 CNS,> 25 µM
same,GI50,OVCAR-3 ovarian,> 25 µM
same,TGI,OVCAR-3 ovarian,> 25 µM
same,GI50,HL-60(TB) leukemia,> 25 µM
same,TGI,HL-60(TB) leukemia,> 25 µM
same,GI50,SNB-19 CNS,> 25 µM
same,TGI,SNB-19 CNS,> 25 µM
same,GI50,PC-3 prostate,> 25 µM
same,TGI,PC-3 prostate,> 25 µM
same,GI50,BT-549 breast,18.8 µM
same,TGI,BT-549 breast,> 25 µM
same,GI50,NCI-H522 lung,18.3 µM
same,TGI,NCI-H522 lung,> 25 µM
same,GI50,A549 NSCLC,> 25 µM
same,TGI,A549 NSCLC,> 25 µM
same,GI50,M14 melanoma,> 25 µM
same,TGI,M14 melanoma,> 25 µM
same,GI50,T-47D breast,6.84 µM
same,TGI,T-47D breast,> 25 µM
same,GI50,CAKI-1 renal,> 25 µM
same,TGI,CAKI-1 renal,> 25 µM
same,GI50,OVCAR-8 ovarian,> 25 µM
same,TGI,OVCAR-8 ovarian,> 25 µM
same,GI50,SK-MEL-5 melanoma,> 25 µM
same,TGI,SK-MEL-5 melanoma,> 25 µM
same,GI50,SW-620 colon,> 25 µM
same,TGI,SW-620 colon,> 25 µM
same,GI50,MOLT-4 leukemia,> 20.4 µM
same,TGI,MOLT-4 leukemia,> 25 µM
same,GI50,HCT-15 colon,> 25 µM
same,TGI,HCT-15 colon,> 25 µM
same,GI50,UO-31 renal,> 25 µM
same,TGI,UO-31 renal,> 25 µM
same,GI50,IGROV1 ovarian,9.23 µM
same,TGI,IGROV1 ovarian,> 25 µM
same,GI50,SNB-75 CNS,8.29 µM
same,TGI,SNB-75 CNS,> 25 µM
same,GI50,COLO 205 colon,> 25 µM
same,TGI,COLO 205 colon,> 25 µM
same,GI50,MALME-3M melanoma,> 25 µM
same,TGI,MALME-3M melanoma,> 25 µM
same,GI50,TK-10 renal,17.9 µM
same,TGI,TK-10 renal,> 25 µM
same,GI50,KM12 colon,> 25 µM
same,TGI,KM12 colon,> 25 µM
same,GI50,SF-268 CNS,> 25 µM
same,TGI,SF-268 CNS,> 25 µM
same,GI50,SF-539 CNS,16.9 µM
same,TGI,SF-539 CNS,> 25 µM
same,GI50,SK-MEL-2 melanoma,> 25 µM
same,TGI,SK-MEL-2 melanoma,> 25 µM
same,GI50,SR leukemia,> 25 µM
same,TGI,SR leukemia,> 25 µM
same,GI50,MCF7 breast,20 µM
same,TGI,MCF7 breast,> 25 µM
same,GI50,HCC-2998 colon,> 25 µM
same,TGI,HCC-2998 colon,> 25 µM
same,GI50,MDA-MB-435,> 25 µM
same,TGI,MDA-MB-435,> 25 µM
same,GI50,SN12C renal,> 25 µM
same,TGI,SN12C renal,> 25 µM
same,GI50,HOP-92 NSCLC,> 25 µM
same,TGI,HOP-92 NSCLC,> 25 µM
same,GI50,HCT-116 colon,> 25 µM
same,TGI,HCT-116 colon,> 25 µM
same,GI50,HT29 colon,> 25 µM
same,TGI,HT29 colon,> 25 µM
same,GI50,ACHN renal,> 25 µM
same,TGI,ACHN renal,> 25 µM
same,GI50,NCI/ADR-RES ovarian,> 25 µM
same,TGI,NCI/ADR-RES ovarian,> 25 µM
same,GI50,NCI-H23 lung,> 25 µM
same,TGI,NCI-H23 lung,> 25 µM
same,GI50,HS 578T breast,7.39 µM
same,TGI,HS 578T breast,> 25 µM
same,GI50,A498 renal,1.39 µM
same,TGI,A498 renal,14.6 µM
same,GI50,SK-MEL-28 melanoma,> 25 µM
same,TGI,SK-MEL-28 melanoma,> 25 µM
Cn1ccnc1Sc1ccc(/C=N\NC(=O)c2cccc(F)c2)cc1[N+](=O)[O-],TGI,U251 CNS,43.7 µM
same,TGI,DU-145 prostate,> 100 µM
same,TGI,K-562 leukemia,> 100 µM
same,TGI,NCI-H460 lung,> 100 µM
same,TGI,CCRF-CEM leukemia,> 100 µM
same,TGI,MDA-MB-231 breast,> 100 µM
same,TGI,OVCAR-5 ovarian,> 100 µM
same,TGI,EKVX NSCLC,> 100 µM
same,TGI,UACC-62 melanoma,> 100 µM
same,TGI,RXF 393 renal,94.3 µM
same,TGI,786-0 renal,> 100 µM
same,TGI,UACC-257 melanoma,> 100 µM
same,TGI,RPMI-8226 leukemia,> 100 µM
same,TGI,SK-OV-3 ovarian,89.8 µM
same,TGI,LOX IMVI melanoma,> 100 µM
same,TGI,HOP-62 NSCLC,> 100 µM
same,TGI,OVCAR-4 ovarian,> 100 µM
same,TGI,NCI-H226 lung,> 100 µM
same,TGI,SF-295 CNS,> 100 µM
same,TGI,OVCAR-3 ovarian,> 100 µM
same,TGI,HL-60(TB) leukemia,> 100 µM
same,TGI,SNB-19 CNS,77.1 µM
same,TGI,PC-3 prostate,63.2 µM
same,TGI,BT-549 breast,> 100 µM
same,TGI,NCI-H522 lung,72.1 µM
same,TGI,A549 NSCLC,> 100 µM
same,TGI,M14 melanoma,> 100 µM
same,TGI,T-47D breast,> 100 µM
same,TGI,CAKI-1 renal,> 100 µM
same,TGI,OVCAR-8 ovarian,63.5 µM
same,TGI,SK-MEL-5 melanoma,> 100 µM
same,TGI,SW-620 colon,> 100 µM
same,TGI,MOLT-4 leukemia,> 100 µM
same,TGI,HCT-15 colon,> 100 µM
same,TGI,UO-31 renal,> 100 µM
same,TGI,IGROV1 ovarian,53 µM
same,TGI,SNB-75 CNS,59.5 µM
same,TGI,COLO 205 colon,> 100 µM
same,TGI,MALME-3M melanoma,> 100 µM
same,TGI,TK-10 renal,> 100 µM
same,TGI,KM12 colon,> 100 µM
same,TGI,SF-268 CNS,53.9 µM
same,TGI,SF-539 CNS,66.4 µM
same,TGI,SK-MEL-2 melanoma,> 100 µM
same,TGI,SR leukemia,> 100 µM
same,TGI,MCF7 breast,91.5 µM
same,TGI,HCC-2998 colon,> 100 µM
same,TGI,MDA-MB-435,> 100 µM
same,TGI,SN12C renal,> 100 µM
same,TGI,HOP-92 NSCLC,63.7 µM
same,TGI,HCT-116 colon,> 100 µM
same,TGI,HT29 colon,> 100 µM
same,TGI,ACHN renal,> 100 µM
same,TGI,NCI/ADR-RES ovarian,> 100 µM
same,TGI,NCI-H23 lung,> 100 µM
same,TGI,HS 578T breast,70.6 µM
same,TGI,A498 renal,65.7 µM
same,TGI,SK-MEL-28 melanoma,> 100 µM
